Laboratory results: paper PMC9827864, “In Situ Inhibitor Synthesis and Screening by Fluorescence Polarization: An Efficient Approach for Accelerating Drug Discovery” (Angewandte Chemie (International Ed. in English), 2022)
Entries after “also recorded” stand apart in the source; their conditions may differ.

Columns and labels:
[1] = system: EPO gene expression in Hep3B cells; assay: RT-qPCR assay of EPO mRNA; format: cell-based, human; settings: reference gene HPRT
ICR mice [2] = assay: Subacute oral toxicity assay; format: in vivo
Procedure: 6. Subacute and acute oral toxicity assay
The experimental mice (SPF, ICR, male and female) were obtained from Nantong University (permit number: SCXK (Su) 2019-0001). All animal related experiments were conducted under China Pharmaceutical University guidelines (certification of using the housing facility for laboratory animals: SYXK (Su) 2018-0019) IACUC approved protocols in compliance with the guide for the care and use of laboratory animals (number: 202013705).
6.1 Subacute oral toxicity assay
ICR mice were divided into 8 groups (n = 6), including 15 mg·kg-1, 50 mg·kg-1, 100 mg·kg-1 and vehicle groups for males and females, respectively. […] The body weight of the mice was recorded. […]
Experimental mice were treated with 17 through oral administration once. Body weight and the heart, kidney, liver, spleen, and lung weight were recorded. Blood was collected, and the samples were analyzed by blood biochemistry assays (CRE, AST, ALT, BUN).
A solution of aldehyde B82 (60 μL, 0.5 M, DMSO-d6), 4-methoxyaniline (2 μL, 6.0 M, DMSO -d6), mesitylene (100 μL, 0.1 M, DMSO - d6), and acylhydrazide A3 (100 μL, 0.1 M, DMSO -d6) was added to a mixture of DMSO -d6 (188 μL) and FP buffer D 2O (50 μL), in a 5 mm NMR tube; following incubation at room temperature, the sample was evaluated by a Bruker AV-400 instrument. […]

[3] = system: plasma EPO in C57BL/6J mice; assay: In vivo EPO increased assay (plasma EPO ELISA); design: species or system mouse; settings: C57BL/6J mice, 10, 20 and 50 mg kg−1 po, 4 hours
Procedure: A structure of PHD2 in complex with Fe and a 2OG competing inhibitor (PDB ID: 4KBZ) was obtained from PDB website. The structure files of protein and compounds for docking were prepared using the Discovery Studio (DS) 2020 software. A water molecule HOH624, conserved in the active binding site of PHD2, was retained during the docking. Residues of PHD2 around the native ligand (radius = 10 Å) were defined as the binding sites for docking. Subsequently, the ligand was removed; the Fe (II) was retained during the docking. Compounds were docked into the binding sites using GOLD 5.1. Docking procedures were performed using the default setting with 100 genetic algorithm (GA) runs of ligands. […]
17 was preincubated with microsomes from different species (0.5 mg/mL) at 1 μM for 5 min at 37 °C in 100 mM PBS buffer (pH 7.4). […] The samples were centrifuged at 5000 rpm f or 10 min; the supernatants were then analyzed by HPLC. […]
Representative compounds and Roxadustat were formulated in normal saline solution. […] Subsequently, these samples were analyzed for reticulocytes in the center for new drug safety evaluation and research of China Pharmaceutical University (ADVIA 2120 hematology system). […]
Plasma EPO was evaluated using the erythropoietin quantikine ELISA kit for mice (MEP00B). […]
in normal saline solution. […] Plasma was collected by centrifugation at 3000 rpm, these plasmas were detected by E PO […]

[4] = Acute oral toxicity assay; format: in vivo; settings: both sexes, mouse, in vivo, 400 mg·kg-1; ICR mice, single oral administration
ICR mice [5] = assay: Acute oral toxicity assay; format: in vivo; settings: 400 mg kg−1 oral, once
[6] = Metabolic stability in mouse liver microsomes; format: in vitro ADME

O=C(N/N=C/c1cccc(O)c1Cl)c1cnc(-c2cccnn2)[nH]c1=O [compound 17]
EPO mRNA expression by RT-qPCR [1]: increases EPO mRNA in a concentration‐dependent manner with comparable efficiency to Roxadustat
H&E staining of major organs (ICR mice [2]; 100 mg kg−1 oral, alternate days for two weeks): normal architecture comparable to the vehicle
subacute oral toxicity findings (behavior, body weight, organ/body weight ratio, BUN, ALT, AST, CRE) (ICR mice [2]; oral, every other day for 14 days, 10 or 15, 50 and 100 mg kg−1): no obvious abnormality; also recorded: did not exhibit any treatment-associated adverse effects
plasma EPO response [3]: dose‐dependent induction of EPO, similarly to Roxadustat
LD50 [4]: > 400 mg/kg
acute oral toxicity findings (body weight, organ/body weight ratio, ALT, AST, BUN, CRE) (ICR mice [5]): no obvious abnormality
compound present (remaining) in liver microsomes ([6]; after 50 min, 1 μM, 0.5 mg/mL): > 80%
half-life at 1 μM ([6]; pH 7.4, read-out: t1/2 in liver microsomes): > 100 min
